In publication PMC8949366, “Synthesis of Marine Cyclopeptide Galaxamide Analogues as Potential Anticancer Agents” (Marine Drugs, 2022):
In brackets after ≈: the same amount, converted by molar mass. Entries after “also recorded” stand apart in the source; their conditions may differ. Square brackets hold non-standard residues; d marks the D form. Peptide text beside a SMILES is read from it. NMeL = CN[C@@H](CC(C)C)C(=O)O

Assays:
A549 = assay type: cell-based, human; conditions: 72 h
Method: (§1) Cell culture: MCF-7/MD-MAB-231 (human breast cancer cell line ATCC HTB-22/HTB-26), Hep G2 (human liver cancer cell line ATCC HB-8065), Hela (human cervical carcinoma cell line ATCC CCL-2), A459 (human lung cancer cell line ATCC CCL-185), and HUVEC (primary umbilical vein endothelial cell line ATCC PCS-100-010) were obtained from the Jinan Department of Pathology, University School of Medicine (Jinan University, Guangzhou, China). The cells were cultured in a Modified Eagle’s Medium (DMEM) including 10% fetal bovine serum, 1% penicillin-streptomycin, and antifungal agent, and cultured under standard conditions (5% CO2 atmosphere and temperature at 37 °C). The MTT method was used to evaluate the cytotoxicities of galaxamide and its analogues on the five cancerous cells. In this experiment, the number of regulated cells was 2 × 10^3 cells/well. Then, the cells, as well as galaxamide and its analogues of different concentrations (0, 2.5, 5, and 10 μg/mL), were seeded on a 96-well cell culture plate and cultured in a 37 °C, 5% CO2 incubator for 72 h. After that, 20 µL/well of MTT solution (5 mg/mL phosphate-buffered saline) was added and incubated for 5 h. The medium was discarded and replaced with 100 µL/well of DMSO to dissolve the formazan salt. The color intensity of the cell culture at 570 nm was measured using a microplate spectrophotometer (SpectroAma™ 250, Winooski, VT, USA).

HUVEC = assay type: cell-based, human; conditions: 72 h
Method: as §1

Hela = assay type: cell-based, human; conditions: 72 h
Method: as §1

HepG2 [1] = assay type: cell-based, human; conditions: 72 h
Method: as §1

MCF-7 = assay type: cell-based, human; conditions: 72 h
Method: as §1

MD-MBA-231 = assay type: cell-based, human; conditions: 72 h
Method: as §1

MCF-7 cells [2] = test: Cell cycle distribution by propidium iodide staining / flow cytometry; assay type: cell-based, human; conditions: 0, 2.5, 5, 10 µg/mL, 72 h
Method: Therefore, propidium iodide (PI) staining method was used to further investigate the changes in the cell cycle distribution of MCF-7. In particular, MCF-7 cells were exposed to galaxamide, Z-3, and Z-6 with concentrations of 0, 2.5, 5, and 10 µg/mL for 72 h. Generally, the main effects of galaxamide, Z-3, and Z-6 on MCF-7 cells were in the G0/G1 phase. There was no obvious sub diploid peak in flow cytometry.
(§2) The concentration of 1 × 10^4 cells per well of MCF-7 cells were seeded in 96-well plates. The cell cultures were added to the compounds with a concentration of 0, 2.5, 5, and 10 µg/mL, and incubated for 72 h. After that, 5 µL of Annexin V-fluorescein isothiocyanate (FITC) and 5 µL of PI were added for dual staining of the cells for analysis by FACS flow cytometry. Cell cycles and apoptotic cells were determined by counting the FITC-positive and PI-negative fractions.

MCF-7 cells [3] = test: Annexin V-FITC/PI double staining apoptosis, flow cytometry; assay type: cell-based, human; conditions: 0, 2.5, 5, 10 µg/mL, 72 h
Method: The Annexin V-FITC/PI double staining method was used to analyze the changes in the apoptosis of MCF-7 cells after 72 h of galaxamide, Z-3, and Z-6 exposure. […] At low concentrations, the effects of all the tested compounds were not obvious. When the concentration reached 10 μg/mL, the apoptotic effects of galaxamide, Z-3, and Z-6 on MCF-7 cells were more obvious in the late apoptotic state.
as §2
The apoptotic cells were quantified according to the instructions provided in an Annexin V-FITC (Sigma-Aldrich, St. Louis, MO, USA) cell apoptosis assay kit. Briefly, about 1.5 × 10^5 cells were plated in 96-well plates and treated with galaxamide and its representative analogues (0, 2.5, 5, and 10 µg/mL) for 48 h. The cells were then resuspended in a […] binding buffer. Afterward, […] of annexin V-fluorescein isothiocyanate (FITC) was added, followed by incubation in darkness at room temperature for 10 min. The cells were again resuspended in […] binding buffer and stained with […] PI. The prepared cells were then analyzed using a flow cytometry (Coulter Epics Elite, Miami, FL, USA). The cells in the FITC-positive and PI-negative fractions were regarded as apoptotic cells.

MCF-7 cells [4] = test: Hoechst 33,342 staining of nuclear morphology; assay type: cell-based, human; conditions: 72 h
Method: The morphological alteration of MCF-7 cells was analyzed by the method of Hoechst 33,342 staining (Figure 5). […] The pyknotic nuclei increased with the increasing concentration of these compounds.
[…] After that, the cell culture was washed with 1 mL of PBS and then added with 3 mL of 4% paraformaldehyde solution for 15 min. Then, 1 mL of the prepared Hoechst 33,342 staining solution was added. The resulting mixture was incubated at room temperature for 15 min in the dark.

GRC-1 = tested on: GRC-1; design: method as in PMID 18816120; conditions: cited from earlier work
HepG2 [5] = tested on: HepG2; design: method as in PMID 18816120; conditions: cited from earlier work

Row | SMILES | IC50 A549 (A549) [µg/mL] | IC50 HUVEC (HUVEC) [µg/mL] | IC50 Hela (Hela) [µg/mL] | IC50 HepG2 (HepG2 [1]) [µg/mL] | IC50 MCF-7 (MCF-7) [µg/mL] | IC50 MD-MBA-231 (MD-MBA-231) [µg/mL] | Effect on cell cycle of MCF-7 (in words) (MCF-7 cells [2]) | Apoptosis of MCF-7 cells (in words) (MCF-7 cells [3]) | Nuclear morphology of MCF-7 cells (in words) (MCF-7 cells [4]) | Antitumor activity against GRC-1 (in words) (GRC-1) | Antitumor activity against HepG2 (in words) (HepG2 [5])
1 | CC(C)C[C@@H]1NC(=O)[C@@H]2CCCN2C(=O)[C@@H](CC(C)C)NC(=O)[C@@H](CC(C)C)NC(=O)[C@@H]2CCCN2C1=O [Compound Z-6, Cyclo (D-Leu-Pro-Leu-Pro-D-Leu)] (cyclo(LP[dL][dL]P)) | 5.96 ± 0.41 (≈ 11.2 µM) | 38.72 ± 0.67 (≈ 72.5 µM) | 5.69 ± 0.37 (≈ 10.7 µM) | 2.91 ± 0.17 (≈ 5.45 µM) | 1.65 ± 0.30 (≈ 3.09 µM) | 4.59 ± 0.27 (≈ 8.6 µM) | mainly blocked the growth of cells in the G0/G1 phase | significantly higher than those of galaxamide; also recorded: concentration-dependent apoptosis | the morphology of the nuclei was significantly changed | – | –
2 | CC(C)C[C@@H]1NC(=O)[C@H](CC(C)C)N(C)C(=O)[C@H](CC(C)C)NC(=O)[C@H](CC(C)C)N(C)C(=O)[C@H](CC(C)C)NC1=O [galaxamide] (cyclo(LL[NMeL]L[NMeL])) | 6.99 ± 0.63 (≈ 11.8 µM) | >40 | 8.53 ± 0.73 (≈ 14.4 µM) | 5.20 ± 0.52 (≈ 8.76 µM) | 11.33 ± 2.95 (≈ 19.1 µM) | 8.73 ± 0.29 (≈ 14.7 µM) | mainly blocked the growth of cells in the G0/G1 phase | apoptosis rate of MCF-7 increased with the increasing of the concentration | the morphology of the nuclei was significantly changed | significant antitumor activities | significant antitumor activities
